Data on three molecules can be found in US20230346952A1, “CANNABINOID GLYCOSIDE PRODRUGS AND METHODS OF SYNTHESIS” (priority 2015, published 2023).

Test in all cases: biochemical
Assay [1] deals with T1, safety screen panel of human pharmacological targets (Homo sapiens, UniProt P25101).
T1 sequence (P25101 21-427): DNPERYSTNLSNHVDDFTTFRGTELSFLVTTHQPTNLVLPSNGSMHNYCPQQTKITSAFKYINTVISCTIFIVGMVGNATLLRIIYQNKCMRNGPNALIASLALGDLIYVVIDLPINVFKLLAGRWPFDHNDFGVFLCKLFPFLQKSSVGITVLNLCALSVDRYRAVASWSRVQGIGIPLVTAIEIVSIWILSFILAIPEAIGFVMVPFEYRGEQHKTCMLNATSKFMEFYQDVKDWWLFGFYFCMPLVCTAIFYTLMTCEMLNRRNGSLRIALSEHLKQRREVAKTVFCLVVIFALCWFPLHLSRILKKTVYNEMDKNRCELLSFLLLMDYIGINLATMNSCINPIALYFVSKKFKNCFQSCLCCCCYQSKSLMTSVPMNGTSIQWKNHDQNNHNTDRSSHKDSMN
Conditions: read-out: percent inhibition: ETA (h) (agonist radioligand).

Assay [2] addresses safety screen panel of human pharmacological targets (Homo sapiens, UniProt P25021). Conditions: read-out: percent inhibition: H2 (h) (antagonist radioligand).
In assay [3] the target is T2, safety screen panel of human pharmacological targets (Rattus norvegicus, UniProt P21396).
T2 sequence (P21396 1-526): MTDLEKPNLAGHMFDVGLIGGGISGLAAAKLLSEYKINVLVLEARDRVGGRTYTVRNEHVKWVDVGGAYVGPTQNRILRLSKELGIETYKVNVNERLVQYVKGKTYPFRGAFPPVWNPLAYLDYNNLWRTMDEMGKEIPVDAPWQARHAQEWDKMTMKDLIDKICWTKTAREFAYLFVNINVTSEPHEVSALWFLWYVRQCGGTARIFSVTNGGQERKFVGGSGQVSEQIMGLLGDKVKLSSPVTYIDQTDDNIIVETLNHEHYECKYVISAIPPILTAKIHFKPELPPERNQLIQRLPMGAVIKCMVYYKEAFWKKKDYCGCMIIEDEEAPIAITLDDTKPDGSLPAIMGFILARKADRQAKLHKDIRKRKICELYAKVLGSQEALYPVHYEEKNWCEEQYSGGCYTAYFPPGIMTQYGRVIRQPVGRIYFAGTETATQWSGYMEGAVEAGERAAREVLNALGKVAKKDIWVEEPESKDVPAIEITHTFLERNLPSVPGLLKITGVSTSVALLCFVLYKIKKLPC
Conditions: read-out: percent inhibition: MAO-A (antagonist radioligand).

Assay [4] deals with safety screen panel of human pharmacological targets (Homo sapiens, UniProt P21728). Conditions: read-out: percent inhibition: D1 (h) (antagonist radioligand).
safety screen panel of human pharmacological targets (Homo sapiens, UniProt P21728), sequence (P21728 whole entry): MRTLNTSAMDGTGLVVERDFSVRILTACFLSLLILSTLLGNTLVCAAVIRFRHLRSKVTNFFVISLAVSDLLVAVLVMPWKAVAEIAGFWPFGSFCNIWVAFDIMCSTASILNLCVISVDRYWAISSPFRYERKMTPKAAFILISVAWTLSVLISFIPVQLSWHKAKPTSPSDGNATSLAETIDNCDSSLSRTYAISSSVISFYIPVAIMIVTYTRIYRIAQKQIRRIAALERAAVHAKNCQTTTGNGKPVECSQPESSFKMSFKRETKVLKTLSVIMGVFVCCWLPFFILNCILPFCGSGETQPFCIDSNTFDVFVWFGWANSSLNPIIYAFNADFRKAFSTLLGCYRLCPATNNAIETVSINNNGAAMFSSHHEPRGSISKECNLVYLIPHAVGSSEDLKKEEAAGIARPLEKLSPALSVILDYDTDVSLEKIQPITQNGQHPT
Assay [5] addresses safety screen panel of human pharmacological targets (Homo sapiens, UniProt P43681). Conditions: read-out: percent inhibition: N neuronal alpha 4beta 2 h) (agonist radioligand).
Assay [6] deals with safety screen panel of human pharmacological targets (Homo sapiens, UniProt P34972). Conditions: read-out: percent inhibition: CB2 (h) (agonist radioligand).
Assay [7] deals with T3, safety screen panel of human pharmacological targets (Homo sapiens, UniProt P11229).
T3 sequence (P11229 1-460): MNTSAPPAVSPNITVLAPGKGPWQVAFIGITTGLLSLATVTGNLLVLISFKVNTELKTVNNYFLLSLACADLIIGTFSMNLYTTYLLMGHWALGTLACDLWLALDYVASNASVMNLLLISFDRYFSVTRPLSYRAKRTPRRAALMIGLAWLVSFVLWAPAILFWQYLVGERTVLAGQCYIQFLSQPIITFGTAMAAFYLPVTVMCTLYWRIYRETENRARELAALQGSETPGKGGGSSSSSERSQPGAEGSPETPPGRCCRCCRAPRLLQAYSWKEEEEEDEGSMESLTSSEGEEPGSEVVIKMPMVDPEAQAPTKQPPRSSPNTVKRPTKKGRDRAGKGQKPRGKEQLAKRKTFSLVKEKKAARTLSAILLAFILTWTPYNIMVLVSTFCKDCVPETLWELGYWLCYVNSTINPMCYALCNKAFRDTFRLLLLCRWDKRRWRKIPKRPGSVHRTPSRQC
The following applies: read-out: percent inhibition: M1 (h) (antagonist radioligand).

Assay [8] concerns the target safety screen panel of human pharmacological targets (Homo sapiens, UniProt P07550). The following applies: read-out: percent inhibition: beta 2 (h) (antagonist radioligand).
Assay [9] deals with safety screen panel of human pharmacological targets (Homo sapiens, UniProt Q01959). Conditions: read-out: percent inhibition: dopamine transporter (b) (antagonist radioligand).
safety screen panel of human pharmacological targets (Homo sapiens, UniProt Q01959), sequence (Q01959 whole entry): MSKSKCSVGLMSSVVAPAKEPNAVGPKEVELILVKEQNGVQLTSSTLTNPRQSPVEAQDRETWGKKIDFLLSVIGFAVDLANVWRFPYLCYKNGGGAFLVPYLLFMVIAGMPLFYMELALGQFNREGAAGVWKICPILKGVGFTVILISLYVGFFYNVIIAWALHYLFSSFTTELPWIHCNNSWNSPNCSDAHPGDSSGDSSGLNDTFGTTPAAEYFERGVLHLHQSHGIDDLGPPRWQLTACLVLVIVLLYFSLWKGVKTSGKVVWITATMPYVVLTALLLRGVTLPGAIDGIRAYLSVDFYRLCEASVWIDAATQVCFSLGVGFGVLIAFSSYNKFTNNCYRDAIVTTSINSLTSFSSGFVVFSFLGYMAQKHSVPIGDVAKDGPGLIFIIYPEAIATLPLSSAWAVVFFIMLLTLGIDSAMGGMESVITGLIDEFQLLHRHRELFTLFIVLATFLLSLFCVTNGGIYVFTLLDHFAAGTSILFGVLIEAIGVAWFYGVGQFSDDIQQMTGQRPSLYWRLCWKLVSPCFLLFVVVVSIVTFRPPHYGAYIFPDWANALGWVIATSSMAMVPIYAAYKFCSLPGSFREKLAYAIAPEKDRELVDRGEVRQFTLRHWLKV
Assay [10] addresses safety screen panel of human pharmacological targets (Homo sapiens, UniProt Q14432). Conditions: read-out: percent inhibition: PDE3A (h).
The target of assay [11] is safety screen panel of human pharmacological targets (Homo sapiens, UniProt P35367). Conditions: read-out: percent inhibition: H1 (h) (antagonist radioligand).
safety screen panel of human pharmacological targets (Homo sapiens, UniProt P35367), sequence (P35367 whole entry): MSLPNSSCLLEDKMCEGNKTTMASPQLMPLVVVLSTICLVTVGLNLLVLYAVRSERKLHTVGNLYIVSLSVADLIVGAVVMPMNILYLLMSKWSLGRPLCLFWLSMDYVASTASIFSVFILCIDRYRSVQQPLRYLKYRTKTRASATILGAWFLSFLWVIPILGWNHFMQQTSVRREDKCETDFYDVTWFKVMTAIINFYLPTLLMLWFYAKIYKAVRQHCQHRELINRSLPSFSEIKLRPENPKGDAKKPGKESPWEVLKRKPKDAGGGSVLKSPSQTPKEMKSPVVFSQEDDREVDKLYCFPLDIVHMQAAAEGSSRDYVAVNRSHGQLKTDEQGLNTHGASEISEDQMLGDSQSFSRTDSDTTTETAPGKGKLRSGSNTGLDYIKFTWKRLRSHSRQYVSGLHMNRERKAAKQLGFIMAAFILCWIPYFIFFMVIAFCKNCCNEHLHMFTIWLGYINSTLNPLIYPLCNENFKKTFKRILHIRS
For assay [12], the target named is safety screen panel of human pharmacological targets (Homo sapiens, UniProt P41595). The following applies: read-out: percent inhibition: 5-HT2B (h) (agonist radioligand).
safety screen panel of human pharmacological targets (Homo sapiens, UniProt P41595), sequence (P41595 whole entry): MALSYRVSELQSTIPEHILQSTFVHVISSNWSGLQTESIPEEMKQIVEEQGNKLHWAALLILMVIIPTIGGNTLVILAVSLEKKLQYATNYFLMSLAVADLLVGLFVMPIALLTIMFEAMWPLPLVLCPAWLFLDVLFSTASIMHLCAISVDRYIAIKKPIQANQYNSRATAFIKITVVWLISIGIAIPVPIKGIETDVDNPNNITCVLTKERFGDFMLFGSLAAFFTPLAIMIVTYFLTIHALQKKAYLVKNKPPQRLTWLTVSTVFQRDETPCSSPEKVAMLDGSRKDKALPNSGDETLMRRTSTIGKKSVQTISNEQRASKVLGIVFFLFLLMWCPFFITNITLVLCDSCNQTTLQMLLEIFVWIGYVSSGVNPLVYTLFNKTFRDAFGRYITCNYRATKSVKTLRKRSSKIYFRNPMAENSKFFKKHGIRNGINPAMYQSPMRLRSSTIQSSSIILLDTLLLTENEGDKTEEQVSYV
Assay [13] concerns the target safety screen panel of human pharmacological targets (Homo sapiens, UniProt P22303). The following applies: read-out: percent inhibition: acetylcholinesterase (h).

safety screen panel of human pharmacological targets (Homo sapiens, UniProt P43681), sequence (P43681 27-627): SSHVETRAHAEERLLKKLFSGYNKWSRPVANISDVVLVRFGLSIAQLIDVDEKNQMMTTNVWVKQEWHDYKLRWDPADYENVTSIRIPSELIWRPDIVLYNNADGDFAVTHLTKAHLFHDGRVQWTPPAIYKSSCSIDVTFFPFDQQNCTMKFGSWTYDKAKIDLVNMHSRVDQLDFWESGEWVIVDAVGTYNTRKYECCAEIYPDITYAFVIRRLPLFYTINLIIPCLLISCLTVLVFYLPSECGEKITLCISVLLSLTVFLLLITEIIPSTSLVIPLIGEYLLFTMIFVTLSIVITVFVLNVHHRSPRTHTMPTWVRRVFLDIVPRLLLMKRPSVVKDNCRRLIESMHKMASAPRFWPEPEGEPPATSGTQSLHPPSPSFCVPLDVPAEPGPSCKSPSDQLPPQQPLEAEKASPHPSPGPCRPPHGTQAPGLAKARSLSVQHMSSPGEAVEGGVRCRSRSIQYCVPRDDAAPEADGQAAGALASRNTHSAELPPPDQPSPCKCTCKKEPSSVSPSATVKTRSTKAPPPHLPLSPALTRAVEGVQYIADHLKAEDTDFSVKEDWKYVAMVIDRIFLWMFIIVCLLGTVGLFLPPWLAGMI
safety screen panel of human pharmacological targets (Homo sapiens, UniProt P22303), sequence (P22303 32-614): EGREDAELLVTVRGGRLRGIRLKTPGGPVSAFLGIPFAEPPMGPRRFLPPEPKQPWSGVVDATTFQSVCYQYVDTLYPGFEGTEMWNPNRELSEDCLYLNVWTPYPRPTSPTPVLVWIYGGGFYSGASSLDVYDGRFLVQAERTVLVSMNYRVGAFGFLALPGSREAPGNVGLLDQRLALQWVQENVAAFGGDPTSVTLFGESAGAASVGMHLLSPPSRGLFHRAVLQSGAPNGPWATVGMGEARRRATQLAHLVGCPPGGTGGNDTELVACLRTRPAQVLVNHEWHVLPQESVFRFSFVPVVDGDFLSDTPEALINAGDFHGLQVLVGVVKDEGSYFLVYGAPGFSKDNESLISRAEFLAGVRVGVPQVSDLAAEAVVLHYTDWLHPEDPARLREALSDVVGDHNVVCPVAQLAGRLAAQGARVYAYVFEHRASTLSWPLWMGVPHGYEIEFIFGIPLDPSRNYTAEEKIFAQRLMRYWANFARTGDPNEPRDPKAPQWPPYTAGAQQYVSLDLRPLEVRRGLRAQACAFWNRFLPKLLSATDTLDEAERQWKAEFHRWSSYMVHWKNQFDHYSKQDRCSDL
safety screen panel of human pharmacological targets (Homo sapiens, UniProt P07550), sequence (P07550 whole entry): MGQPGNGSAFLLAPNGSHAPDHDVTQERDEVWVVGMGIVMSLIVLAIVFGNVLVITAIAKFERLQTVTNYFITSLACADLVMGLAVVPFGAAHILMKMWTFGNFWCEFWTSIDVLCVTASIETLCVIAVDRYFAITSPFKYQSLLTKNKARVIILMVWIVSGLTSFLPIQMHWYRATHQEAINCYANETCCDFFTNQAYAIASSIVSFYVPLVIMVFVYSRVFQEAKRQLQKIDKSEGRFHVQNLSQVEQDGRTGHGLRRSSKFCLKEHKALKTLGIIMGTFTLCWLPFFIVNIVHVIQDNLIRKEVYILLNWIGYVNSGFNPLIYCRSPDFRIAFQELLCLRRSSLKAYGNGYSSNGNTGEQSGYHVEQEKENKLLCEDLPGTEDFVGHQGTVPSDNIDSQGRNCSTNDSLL
safety screen panel of human pharmacological targets (Homo sapiens, UniProt Q14432), sequence (Q14432 whole entry): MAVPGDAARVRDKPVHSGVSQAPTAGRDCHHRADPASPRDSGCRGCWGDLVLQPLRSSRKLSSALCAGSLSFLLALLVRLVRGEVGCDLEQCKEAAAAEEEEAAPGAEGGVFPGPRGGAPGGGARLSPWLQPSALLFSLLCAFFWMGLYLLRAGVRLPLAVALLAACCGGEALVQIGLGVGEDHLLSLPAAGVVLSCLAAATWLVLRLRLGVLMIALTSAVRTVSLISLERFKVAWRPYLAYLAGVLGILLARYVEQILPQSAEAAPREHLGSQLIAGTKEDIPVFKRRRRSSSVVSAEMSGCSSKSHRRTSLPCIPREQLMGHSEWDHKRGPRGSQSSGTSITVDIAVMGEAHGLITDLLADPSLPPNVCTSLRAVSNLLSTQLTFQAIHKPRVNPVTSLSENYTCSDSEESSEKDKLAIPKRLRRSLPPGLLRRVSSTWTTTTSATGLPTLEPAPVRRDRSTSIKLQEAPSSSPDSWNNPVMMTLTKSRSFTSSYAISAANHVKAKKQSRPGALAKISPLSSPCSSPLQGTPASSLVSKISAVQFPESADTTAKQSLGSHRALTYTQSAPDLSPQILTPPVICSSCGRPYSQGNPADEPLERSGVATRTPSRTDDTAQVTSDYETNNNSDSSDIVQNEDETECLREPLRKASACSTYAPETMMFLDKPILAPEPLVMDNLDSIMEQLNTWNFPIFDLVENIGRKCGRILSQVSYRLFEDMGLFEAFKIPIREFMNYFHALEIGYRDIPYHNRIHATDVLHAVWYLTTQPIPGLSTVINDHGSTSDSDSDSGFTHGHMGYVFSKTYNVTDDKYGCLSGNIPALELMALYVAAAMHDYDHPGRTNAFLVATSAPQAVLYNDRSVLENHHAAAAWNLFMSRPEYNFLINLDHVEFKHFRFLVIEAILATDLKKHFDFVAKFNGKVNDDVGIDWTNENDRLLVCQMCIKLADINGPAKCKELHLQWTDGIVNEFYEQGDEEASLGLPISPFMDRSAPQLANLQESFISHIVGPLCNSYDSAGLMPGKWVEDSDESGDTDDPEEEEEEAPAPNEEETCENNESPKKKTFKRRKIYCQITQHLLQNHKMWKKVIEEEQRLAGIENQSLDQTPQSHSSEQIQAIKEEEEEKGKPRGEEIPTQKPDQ

As usually defined, the inhibition is the change of the read-out against control, counted positive when it falls. Take `CCCCCc1cc(O)c2c(c1)OC(C)(C)[C@@H]1CCC(C)=C[C@@H]21` [VB301, Δ9-Terahydrocannabinol, reference compound]: the inhibition at 10 µM is 14% in [1]; -6% in assay [2]; 1% in assay [3]; 75% in assay [4]; 1% in [5]; 97% in assay [6]. Besides, the inhibition at 10 µM in [7] was 20%; in [8] it was -12%; in assay [9] it was 101%; in [10] it was -4%; in assay [11] it was 8%; in [12], 90%. Besides, in [13], the inhibition at 10 µM is 30%.
Consider `CCCCCc1cc(O[C@@H]2O[C@H](CO)[C@@H](O)[C@H](O)[C@H]2O)c2c(c1)OC(C)(C)[C@@H]1CCC(C)=C[C@@H]21` [VB302, Δ9THC-1-O-glucopyranoside], for which the inhibition at 10 µM was -21% in assay [1]; -11% in assay [2]; 5% in assay [3]; 4% in assay [4]; 7% in assay [5]; 22% in [6]. The inhibition at 10 µM in assay [7] is -3%; in assay [8] it was 2%; in assay [9], 18%; in assay [10], -44%; in [11], 10%; in [12], -5%. In addition, in assay [13], the inhibition at 10 µM was -1%.
With `CCCCCc1cc(O[C@@H]2O[C@H](CO[C@@H]3O[C@H](CO)[C@@H](O)[C@H](O)[C@H]3O)[C@@H](O[C@@H]3O[C@H](CO)[C@@H](O)[C@H](O)[C@H]3O)[C@H](O)[C@H]2O)c2c(c1)OC(C)(C)[C@@H]1CCC(C)=C[C@@H]21` [VB311], the inhibition at 10 µM is 9% in assay [1]; -10% in assay [2]; 2% in assay [3]; 37% in assay [4]; -1% in assay [5]; 17% in assay [6]. Further, the inhibition at 10 µM in [7] was -8%; in assay [8], -1%; in assay [9] it was 28%; in [10], -6%; in assay [11], -7%; in assay [12], -7%. The inhibition at 10 µM in assay [13] was found to be 1%.
